Data published in US20090299044A1 (priority 2006, published 2009).
Bridge positions count the residues as written; N and C are the ends. Square brackets hold non-standard residues; d marks the D form. Peptide text beside a SMILES is read from it. 1Nal = N[C@@H](Cc1cccc2ccccc12)C(=O)O

Columns and labels:
human Kv1.1 (HEK293) = target: T1, human Kv1.1 (HEK293) (Homo sapiens, UniProt Q09470); test: cell-based
T1 construct: expressed in transfected cells; host or cells: HEK293

human Kv1.3 (CHO) = target: T2, human Kv1.3 (CHO) (Homo sapiens, UniProt P22001); test: cell-based
T2 construct: expressed in transfected cells; host or cells: CHO
T2 sequence (P22001 whole entry): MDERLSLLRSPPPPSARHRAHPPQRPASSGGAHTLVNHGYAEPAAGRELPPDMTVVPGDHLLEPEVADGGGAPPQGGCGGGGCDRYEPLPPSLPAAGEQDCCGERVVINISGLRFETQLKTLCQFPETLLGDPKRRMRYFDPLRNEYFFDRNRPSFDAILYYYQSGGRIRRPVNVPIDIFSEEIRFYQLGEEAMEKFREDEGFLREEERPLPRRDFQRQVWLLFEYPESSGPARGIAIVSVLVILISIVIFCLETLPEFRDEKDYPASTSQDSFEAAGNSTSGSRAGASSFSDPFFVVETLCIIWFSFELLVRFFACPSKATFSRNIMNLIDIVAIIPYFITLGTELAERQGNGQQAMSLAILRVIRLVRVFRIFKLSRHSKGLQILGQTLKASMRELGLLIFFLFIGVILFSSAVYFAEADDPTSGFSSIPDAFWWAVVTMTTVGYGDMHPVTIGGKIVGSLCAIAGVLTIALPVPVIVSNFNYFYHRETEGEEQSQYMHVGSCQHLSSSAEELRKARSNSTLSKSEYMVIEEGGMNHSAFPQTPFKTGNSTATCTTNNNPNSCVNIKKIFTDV

T1 sequence (Q09470 whole entry): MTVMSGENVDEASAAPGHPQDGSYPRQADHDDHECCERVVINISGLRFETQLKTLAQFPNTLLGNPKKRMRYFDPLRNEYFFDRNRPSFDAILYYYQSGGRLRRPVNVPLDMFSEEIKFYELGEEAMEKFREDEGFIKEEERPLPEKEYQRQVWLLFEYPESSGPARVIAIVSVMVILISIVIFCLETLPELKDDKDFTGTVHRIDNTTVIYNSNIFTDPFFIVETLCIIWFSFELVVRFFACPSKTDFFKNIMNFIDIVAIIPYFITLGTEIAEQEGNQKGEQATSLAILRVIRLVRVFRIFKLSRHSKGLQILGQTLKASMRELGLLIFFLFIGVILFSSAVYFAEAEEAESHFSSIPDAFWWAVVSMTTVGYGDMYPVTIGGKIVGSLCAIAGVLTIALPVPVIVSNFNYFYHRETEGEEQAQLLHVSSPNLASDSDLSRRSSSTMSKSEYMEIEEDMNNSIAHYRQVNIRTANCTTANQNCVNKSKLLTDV

| SMILES | IC50 (human Kv1.1 (HEK293)) | IC50 (human Kv1.3 (CHO)) |
| --- | --- | --- |
| CC[C@H](C)[C@H](NC(=O)[C@H](C)NC(=O)[C@@H](NC(=O)CN)C(C)C)C(=O)N[C@@H](CC(N)=O)C(=O)N[C@H](C(=O)N[C@@H](CCCCN)C(=O)N[C@H]1CSSC[C@@H]2NC(=O)[C@H](CCCCN)NC(=O)CNC(=O)[C@H](Cc3ccccc3)NC(=O)[C@H](CCCNC(=N)N)NC(=O)[C@H](CCSC)NC(=O)CNC(=O)[C@H](C)NC(=O)[C@H](CCCCN)NC(=O)[C@H](CCCCN)NC(=O)[C@@H]3CSSC[C@@H](C(=O)N[C@H](C(=O)N4CCC[C@H]4C(=O)N[C@@H](CCCCN)C(=O)O)[C@@H](C)O)NC(=O)[C@H](Cc4c[nH]cn4)NC(=O)[C@H](CSSC[C@H](NC(=O)[C@H](CCC(N)=O)NC(=O)[C@H](CCCNC(=N)N)NC(=O)[C@H](CO)NC(=O)[C@H]([C@@H](C)CC)NC(=O)[C@H](CCCCN)NC1=O)C(=O)N[C@@H](CC(C)C)C(=O)N[C@@H](CCC(=O)O)C(=O)N1CCC[C@H]1C(=O)N3)NC(=O)[C@H](CCCCN)NC(=O)CNC(=O)[C@H](CC(N)=O)NC(=O)[C@H](CCSC)NC2=O)C(C)C [I3A] (H-GVAINVKCKISRQCLEPCKKAGMRFGKCMNGKCHCTPK-OH; disulfide 8-28, 14-33, 18-35) | 0.0106 nM | 0.0966 nM |
| CC[C@H](C)[C@@H]1NC(=O)[C@H](CCCCN)NC(=O)[C@@H](NC(=O)[C@H](CCCCN)NC(=O)[C@@H](NC(=O)[C@H](CC(N)=O)NC(=O)[C@@H](NC(=O)[C@H](CCC(=O)O)NC(=O)[C@@H](NC(=O)CN)C(C)C)[C@@H](C)CC)C(C)C)CSSC[C@@H]2NC(=O)[C@H](CCCCN)NC(=O)CNC(=O)[C@H](Cc3ccccc3)NC(=O)[C@H](CCCNC(=N)N)NC(=O)[C@H](CCSC)NC(=O)CNC(=O)[C@H](C)NC(=O)[C@H](CCCCN)NC(=O)[C@H](CCCCN)NC(=O)[C@@H]3CSSC[C@@H](C(=O)N[C@H](C(=O)N4CCC[C@H]4C(=O)N[C@@H](CCCCN)C(=O)O)[C@@H](C)O)NC(=O)[C@H](Cc4c[nH]cn4)NC(=O)[C@H](CSSC[C@H](NC(=O)[C@H](CCC(N)=O)NC(=O)[C@H](CCCNC(=N)N)NC(=O)[C@H](CO)NC1=O)C(=O)N[C@@H](CC(C)C)C(=O)N[C@@H](CCC(=O)O)C(=O)N1CCC[C@H]1C(=O)N3)NC(=O)[C@H](CCCCN)NC(=O)CNC(=O)[C@H](CC(N)=O)NC(=O)[C@H](CCSC)NC2=O [I3E] (H-GVEINVKCKISRQCLEPCKKAGMRFGKCMNGKCHCTPK-OH; disulfide 8-28, 14-33, 18-35) | 0.043 nM | 0.022 nM |
| CC[C@H](C)[C@@H]1NC(=O)[C@H](CCCCN)NC(=O)[C@@H](NC(=O)[C@H](CCCCN)NC(=O)[C@@H](NC(=O)[C@H](CC(N)=O)NC(=O)[C@@H](NC(=O)[C@H](CCCNC(=N)N)NC(=O)[C@@H](NC(=O)CN)C(C)C)[C@@H](C)CC)C(C)C)CSSC[C@@H]2NC(=O)[C@H](CCCCN)NC(=O)CNC(=O)[C@H](Cc3ccccc3)NC(=O)[C@H](CCCNC(=N)N)NC(=O)[C@H](CCSC)NC(=O)CNC(=O)[C@H](C)NC(=O)[C@H](CCCCN)NC(=O)[C@H](CCCCN)NC(=O)[C@@H]3CSSC[C@@H](C(=O)N[C@H](C(=O)N4CCC[C@H]4C(=O)N[C@@H](CCCCN)C(=O)O)[C@@H](C)O)NC(=O)[C@H](Cc4c[nH]cn4)NC(=O)[C@H](CSSC[C@H](NC(=O)[C@H](CCC(N)=O)NC(=O)[C@H](CCCNC(=N)N)NC(=O)[C@H](CO)NC1=O)C(=O)N[C@@H](CC(C)C)C(=O)N[C@@H](CCC(=O)O)C(=O)N1CCC[C@H]1C(=O)N3)NC(=O)[C@H](CCCCN)NC(=O)CNC(=O)[C@H](CC(N)=O)NC(=O)[C@H](CCSC)NC2=O [I3R] (H-GVRINVKCKISRQCLEPCKKAGMRFGKCMNGKCHCTPK-OH; disulfide 8-28, 14-33, 18-35) | 0.00247 nM | 0.0199 nM |
| CC[C@H](C)[C@@H]1NC(=O)[C@H](CCCCN)NC(=O)[C@@H](NC(=O)[C@H](CCCCN)NC(=O)[C@@H](NC(=O)[C@H](CC(N)=O)NC(=O)[C@H](C)NC(=O)[C@@H](NC(=O)[C@@H](NC(=O)CN)C(C)C)[C@@H](C)CC)C(C)C)CSSC[C@@H]2NC(=O)[C@H](CCCCN)NC(=O)CNC(=O)[C@H](Cc3ccccc3)NC(=O)[C@H](CCCNC(=N)N)NC(=O)[C@H](CCSC)NC(=O)CNC(=O)[C@H](C)NC(=O)[C@H](CCCCN)NC(=O)[C@H](CCCCN)NC(=O)[C@@H]3CSSC[C@@H](C(=O)N[C@H](C(=O)N4CCC[C@H]4C(=O)N[C@@H](CCCCN)C(=O)O)[C@@H](C)O)NC(=O)[C@H](Cc4c[nH]cn4)NC(=O)[C@H](CSSC[C@H](NC(=O)[C@H](CCC(N)=O)NC(=O)[C@H](CCCNC(=N)N)NC(=O)[C@H](CO)NC1=O)C(=O)N[C@@H](CC(C)C)C(=O)N[C@@H](CCC(=O)O)C(=O)N1CCC[C@H]1C(=O)N3)NC(=O)[C@H](CCCCN)NC(=O)CNC(=O)[C@H](CC(N)=O)NC(=O)[C@H](CCSC)NC2=O [I4A] (H-GVIANVKCKISRQCLEPCKKAGMRFGKCMNGKCHCTPK-OH; disulfide 8-28, 14-33, 18-35) | 0.0169 nM | 0.195 nM |
| CC[C@H](C)[C@@H]1NC(=O)[C@H](CCCCN)NC(=O)[C@@H](NC(=O)[C@H](CCCCN)NC(=O)[C@@H](NC(=O)[C@H](CC(N)=O)NC(=O)[C@H](CCC(=O)O)NC(=O)[C@@H](NC(=O)[C@@H](NC(=O)CN)C(C)C)[C@@H](C)CC)C(C)C)CSSC[C@@H]2NC(=O)[C@H](CCCCN)NC(=O)CNC(=O)[C@H](Cc3ccccc3)NC(=O)[C@H](CCCNC(=N)N)NC(=O)[C@H](CCSC)NC(=O)CNC(=O)[C@H](C)NC(=O)[C@H](CCCCN)NC(=O)[C@H](CCCCN)NC(=O)[C@@H]3CSSC[C@@H](C(=O)N[C@H](C(=O)N4CCC[C@H]4C(=O)N[C@@H](CCCCN)C(=O)O)[C@@H](C)O)NC(=O)[C@H](Cc4c[nH]cn4)NC(=O)[C@H](CSSC[C@H](NC(=O)[C@H](CCC(N)=O)NC(=O)[C@H](CCCNC(=N)N)NC(=O)[C@H](CO)NC1=O)C(=O)N[C@@H](CC(C)C)C(=O)N[C@@H](CCC(=O)O)C(=O)N1CCC[C@H]1C(=O)N3)NC(=O)[C@H](CCCCN)NC(=O)CNC(=O)[C@H](CC(N)=O)NC(=O)[C@H](CCSC)NC2=O [I4E] (H-GVIENVKCKISRQCLEPCKKAGMRFGKCMNGKCHCTPK-OH; disulfide 8-28, 14-33, 18-35) | 0.00319 nM | 0.0157 nM |
| CC[C@H](C)[C@@H]1NC(=O)[C@H](CCCCN)NC(=O)[C@@H](NC(=O)[C@H](CCCCN)NC(=O)[C@@H](NC(=O)[C@H](CC(N)=O)NC(=O)[C@H](Cc2cccc3ccccc23)NC(=O)[C@@H](NC(=O)[C@@H](NC(=O)CN)C(C)C)[C@@H](C)CC)C(C)C)CSSC[C@@H]2NC(=O)[C@H](CCCCN)NC(=O)CNC(=O)[C@H](Cc3ccccc3)NC(=O)[C@H](CCCNC(=N)N)NC(=O)[C@H](CCSC)NC(=O)CNC(=O)[C@H](C)NC(=O)[C@H](CCCCN)NC(=O)[C@H](CCCCN)NC(=O)[C@@H]3CSSC[C@@H](C(=O)N[C@H](C(=O)N4CCC[C@H]4C(=O)N[C@@H](CCCCN)C(=O)O)[C@@H](C)O)NC(=O)[C@H](Cc4c[nH]cn4)NC(=O)[C@H](CSSC[C@H](NC(=O)[C@H](CCC(N)=O)NC(=O)[C@H](CCCNC(=N)N)NC(=O)[C@H](CO)NC1=O)C(=O)N[C@@H](CC(C)C)C(=O)N[C@@H](CCC(=O)O)C(=O)N1CCC[C@H]1C(=O)N3)NC(=O)[C@H](CCCCN)NC(=O)CNC(=O)[C@H](CC(N)=O)NC(=O)[C@H](CCSC)NC2=O [I4Nal] (H-GVI[1Nal]NVKCKISRQCLEPCKKAGMRFGKCMNGKCHCTPK-OH; disulfide 8-28, 14-33, 18-35) | < 0.00152 nM | 0.015 nM |
